Measurements as given in ChEMBL document CHEMBL4828768, “Talaromynoids A-I, Highly Oxygenated Meroterpenoids from the Marine-Derived Fungus Talaromyces purpureogenus SCSIO 41517 and Their Lipid Accumulation Inhibitory Activities” (J Nat Prod, 2021).
Activity calls are given as the source filed them. No cut-off for these calls is given here.

Experiments:
[1] = target: T1, Tyrosine-protein phosphatase non-receptor type 2 (Homo sapiens) (UniProt P17706); experiment: Inhibition of human recombinant TCPTP expressed in Escherichia coli assessed as inhibition of phosphatase activity by measuring p-nitrophenyl phosphate at 6.7 microg/ml measured after 60 mins; details: dose 6.7 µg/ml
T1 sequence (whole entry): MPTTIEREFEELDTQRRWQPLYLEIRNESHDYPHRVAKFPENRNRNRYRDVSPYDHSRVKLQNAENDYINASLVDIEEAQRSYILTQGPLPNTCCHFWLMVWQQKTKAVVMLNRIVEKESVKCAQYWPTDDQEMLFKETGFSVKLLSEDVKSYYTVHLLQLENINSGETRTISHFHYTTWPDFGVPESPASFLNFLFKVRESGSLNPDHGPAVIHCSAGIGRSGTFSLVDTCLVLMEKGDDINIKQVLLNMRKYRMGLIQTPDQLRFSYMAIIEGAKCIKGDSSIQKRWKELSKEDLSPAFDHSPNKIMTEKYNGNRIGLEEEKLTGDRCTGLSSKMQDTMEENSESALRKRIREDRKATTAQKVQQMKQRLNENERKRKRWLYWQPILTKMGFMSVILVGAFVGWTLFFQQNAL

[2] = target: T2, Tyrosine-protein phosphatase non-receptor type 1 (Homo sapiens) (UniProt P18031); experiment: Inhibition of human recombinant PTP1B expressed in Escherichia coli assessed as inhibition of phosphatase activity by measuring p-nitrophenyl phosphate at 6.7 microg/ml measured after 60 mins; details: dose 6.7 µg/ml
T2 sequence (whole entry): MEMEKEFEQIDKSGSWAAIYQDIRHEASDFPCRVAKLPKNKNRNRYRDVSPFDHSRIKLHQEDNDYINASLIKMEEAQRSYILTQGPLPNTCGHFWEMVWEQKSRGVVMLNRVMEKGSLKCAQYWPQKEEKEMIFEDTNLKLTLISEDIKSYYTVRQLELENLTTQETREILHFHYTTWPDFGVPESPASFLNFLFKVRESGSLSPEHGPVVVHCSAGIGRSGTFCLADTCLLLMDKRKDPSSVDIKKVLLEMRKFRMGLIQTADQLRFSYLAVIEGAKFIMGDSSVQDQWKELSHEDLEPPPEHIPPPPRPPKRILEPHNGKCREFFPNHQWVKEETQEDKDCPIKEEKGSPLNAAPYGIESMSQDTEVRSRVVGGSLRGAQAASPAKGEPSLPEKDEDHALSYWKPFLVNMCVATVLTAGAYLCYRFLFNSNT

[3] = target: T3, Tyrosine-protein phosphatase non-receptor type 11 (Homo sapiens) (UniProt Q06124); experiment: Inhibition of human recombinant SHP2 expressed in Escherichia coli assessed as inhibition of phosphatase activity by measuring p-nitrophenyl phosphate at 6.7 microg/ml measured after 60 mins; details: dose 6.7 µg/ml
T3 sequence (whole entry): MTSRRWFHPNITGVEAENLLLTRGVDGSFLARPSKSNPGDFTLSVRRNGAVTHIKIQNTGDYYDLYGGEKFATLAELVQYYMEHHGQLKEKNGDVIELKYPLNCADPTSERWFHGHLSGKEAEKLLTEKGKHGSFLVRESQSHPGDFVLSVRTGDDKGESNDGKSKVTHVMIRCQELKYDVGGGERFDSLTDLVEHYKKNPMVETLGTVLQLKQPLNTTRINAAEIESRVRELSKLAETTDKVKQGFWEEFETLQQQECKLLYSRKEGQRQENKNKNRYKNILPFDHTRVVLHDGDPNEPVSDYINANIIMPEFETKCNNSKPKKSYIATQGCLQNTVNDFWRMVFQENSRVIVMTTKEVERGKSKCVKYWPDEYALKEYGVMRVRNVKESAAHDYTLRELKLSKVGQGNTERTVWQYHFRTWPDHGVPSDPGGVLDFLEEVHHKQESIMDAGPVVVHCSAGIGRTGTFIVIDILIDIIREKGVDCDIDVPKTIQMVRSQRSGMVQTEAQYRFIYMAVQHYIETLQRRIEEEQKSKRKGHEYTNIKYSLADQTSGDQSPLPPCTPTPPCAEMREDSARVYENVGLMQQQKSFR

[4] = (§1) Reduction in intracellular triglyceride accumulation in mouse 3T3-L1 cells at 10 uM measured after 3 days; assay type: functional; parameters: scale not given: the % may be the effect or the level left; details: time 3 day
[5] = target: T4, M-phase inducer phosphatase 2 (Homo sapiens, UniProt P30305); experiment: Inhibition of human recombinant CDC25B expressed in Escherichia coli assessed as inhibition of phosphatase activity by measuring p-nitrophenyl phosphate measured after 60 mins
T4 sequence (P30305 whole entry): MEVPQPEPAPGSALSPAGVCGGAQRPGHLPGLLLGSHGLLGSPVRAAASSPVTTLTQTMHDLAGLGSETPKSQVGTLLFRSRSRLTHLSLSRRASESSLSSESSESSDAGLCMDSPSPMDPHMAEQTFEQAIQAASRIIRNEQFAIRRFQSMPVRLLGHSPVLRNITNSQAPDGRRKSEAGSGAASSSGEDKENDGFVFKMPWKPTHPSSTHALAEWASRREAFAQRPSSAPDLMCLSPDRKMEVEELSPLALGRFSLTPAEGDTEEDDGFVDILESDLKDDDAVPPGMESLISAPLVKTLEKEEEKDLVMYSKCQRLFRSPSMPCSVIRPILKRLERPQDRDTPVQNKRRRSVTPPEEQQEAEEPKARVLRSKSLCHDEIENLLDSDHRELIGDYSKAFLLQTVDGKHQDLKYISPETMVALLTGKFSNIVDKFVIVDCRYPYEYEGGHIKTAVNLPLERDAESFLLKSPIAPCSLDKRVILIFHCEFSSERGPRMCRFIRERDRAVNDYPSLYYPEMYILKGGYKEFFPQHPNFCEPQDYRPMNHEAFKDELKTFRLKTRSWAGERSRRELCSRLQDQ

[6] = Reduction in intracellular triglyceride accumulation in mouse 3T3-L1 cells measured after 3 days; assay type: functional, cell-based; details: 3T3-L1, 72 h
3T3-L1 = experiment: as §1; assay type: functional; details: time 3.0 day

SMILES	inhibition [1]	inhibition [2]	inhibition [3]	IC50 [5]	IC50 [6]	Activity [4]	Activity (3T3-L1)
COC(=O)CC1=C(C)[C@@H]2C[C@@]3(C)C(=O)O[C@H]4O[C@@H](C)[C@@]5(O)O[C@@H]([C@@H]6O[C@]16C(C)(C)O)[C@]2(C)[C@@]5(C(=O)OC)[C@H]43	< 60%	< 60%	< 60%	–	–	–	–
COC(=O)[C@]12C(=O)[C@H](C)O[C@@H]3OC(=O)[C@](C)(C[C@H]4C(C)=C5CC(=O)OC(C)(C)C5=CC[C@@]41C)[C@@H]32 [BERKELEYACETAL A]	< 60%	< 60%	< 60%	–	–	<60%	–
COC(=O)[C@]12[C@@H]3[C@@H](O)O[C@@H](C)[C@@]14OC(=O)[C@]3(C)C[C@H]1C(C)=C3CC(=O)OC(C)(C)[C@@]35O[C@H]5[C@H](O4)[C@@]12C	< 60%	< 60%	< 60%	–	21 µM	–	Active
CC1=C2CC(=O)OC(C)(C)C2=CC[C@@]2(C)[C@H]1C[C@@](C)(C(=O)O)[C@]13COC(=O)[C@@]12C(=O)[C@H](C)O3	< 60%	< 60%	< 60%	–	–	<60%	–
COC(=O)[C@]12C(=O)[C@@](C)(O)C(=O)[C@](C)(C[C@H]3C(C)=C4CC(=O)OC(C)(C)C4=CC[C@@]31C)[C@]21CO1	< 60%	< 60%	< 60%	–	43 µM	–	Active
COC(=O)CC1=C(C)[C@H]2C[C@]3(C)C(=O)O[C@@H]4O[C@H](C)[C@]5(O)O[C@@H]([C@H]6O[C@@]16C(C)(C)O)[C@@]2(C)[C@@]51C(=O)O[C@@]413	< 60%	< 60%	< 60%	–	29 µM	–	Active
COC(=O)[C@]12[C@@H]3[C@H]4OC(=O)[C@]3(C)CC3=C(C)C5=C(C[C@H](O[C@]1(O)[C@H](C)O4)[C@@]32C)C(C)(C)OC(=O)C5	< 60%	< 60%	< 60%	–	–	–	–
CC1=C2CC(=O)OC(C)(C)[C@]23O[C@@H]3[C@@H]2O[C@@]3(O)[C@@H](C)O[C@H]4OC(=O)[C@]5(C)C[C@H]1[C@]2(C)[C@@]31C(=O)O[C@@]415	< 60%	< 60%	< 60%	–	37 µM	–	Active

Continued, in another order:

inhibition [1]	inhibition [2]	inhibition [3]	IC50 [5]	IC50 [6]	SMILES	Activity [4]	Activity (3T3-L1)
< 60%	< 60%	< 60%	–	–	COC(=O)CC1=C(C)[C@@H]2C[C@@]3(C)C(=O)O[C@H]4O[C@@H](C)[C@@]5(O)O[C@@H]([C@@H]6O[C@]16C(C)(C)O)[C@]2(C)[C@@]5(C(=O)OC)[C@]43O	–	–
< 60%	< 60%	< 60%	13 µM	–	COC(=O)[C@@]12[C@@]3(C)[C@@H]4C=C5C(=CC(=O)OC5(C)C)[C@@](C)(O)[C@@H]3C[C@@]3(C)C(=O)O[C@@H](O[C@@H](C)[C@@]1(O)O4)[C@@]23O	–	–
< 60%	< 60%	< 60%	–	–	COC(=O)[C@]12[C@@H]3[C@H]4OC(=O)[C@]3(C)C[C@H]3C(C)=C5CC(=O)OC(C)(C)[C@@]56O[C@H]6[C@H](O[C@]1(O)[C@H](C)O4)[C@@]32C	–	–
< 60%	< 60%	< 60%	–	–	COC(=O)[C@]12C3=C(C)O[C@@H]4OC(=O)[C@](C)(C[C@H]5C(C)=C6CC(=O)O[C@@]6(C(C)(C)O)[C@@H](C[C@@]51C)O3)[C@@H]42	–	–
< 60%	< 60%	< 60%	–	–	COC(=O)[C@]12C3=C(C)O[C@@H]4OC(=O)[C@](C)(C[C@H]5C(C)=C6CC(=O)O[C@@]6(C(C)(C)O)[C@H](O3)[C@H](O)[C@@]51C)[C@@H]42	–	–
